Reference: patent US10213433B2 (AbbVie Inc., priority 2010, dated 2019)

Each compound was assayed against Bcl-2 protein (Homo sapiens (Human), UniProt P10415) (assay: Bcl-2 binding TR-FRET (Time-Resolved Fluorescence-Resonance-Energy-Transfer) assay). Settings: inhibition constant for binding to Bcl-2 protein.
Chain of Bcl-2 protein (P10415 whole entry): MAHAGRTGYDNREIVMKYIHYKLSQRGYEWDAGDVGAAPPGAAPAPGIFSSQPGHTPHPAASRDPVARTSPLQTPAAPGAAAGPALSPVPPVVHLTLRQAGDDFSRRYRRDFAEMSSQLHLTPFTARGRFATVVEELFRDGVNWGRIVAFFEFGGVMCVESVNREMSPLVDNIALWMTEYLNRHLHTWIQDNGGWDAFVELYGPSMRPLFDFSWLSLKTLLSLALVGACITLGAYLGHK
Excerpt: The smaller the Ki value, the greater is the binding affinity.
CC1(C)CCC(CN2CCN(c3ccc(C(=O)NS(=O)(=O)c4ccc(NC5CCN(C6CCOC(C)(C)C6)CC5)c([N+](=O)[O-])c4)c(Oc4cnc5[nH]ccc5c4)c3)CC2)=C(c2ccc(Cl)cc2)C1 (stereo not shown) [Compound 141, 4-(4-{[2-(4-chlorophenyl)-4,4-dimethylcyclohex-1-en-1-yl]methyl}piperazin-1-yl)-N-[(4-{[1-(2,2-dimethyltetrahydro-2H-pyran-4-yl)piperidin-4-yl]amino}-3-nitrophenyl)sulfonyl]-2-(1H-pyrrolo[2,3-b]pyridin-5-yloxy)benzamide] was tested, and the Ki was less than 0.01 nM.
Work on CC1(C)CCC(CN2CCN(c3ccc(C(=O)NS(=O)(=O)c4ccc(NC5CCN(C6CCOC6)CC5)c([N+](=O)[O-])c4)c(Oc4cnc5[nH]ccc5c4)c3)CC2)=C(c2ccc(Cl)cc2)C1 (stereo not shown) [Compound 143, 4-(4-{[2-(4-chlorophenyl)-4,4-dimethylcyclohex-1-en-1-yl]methyl}piperazin-1-yl)-N-({3-nitro-4-[(1-tetrahydrofuran-3-ylpiperidin-4-yl)amino]phenyl}sulfonyl)-2-(1H-pyrrolo[2,3-b]pyridin-5-yloxy)benzamide] yielded a Ki of less than 0.01 nM.
CC1(C)CCC(CN2CCN(c3ccc(C(=O)NS(=O)(=O)c4ccc(N[C@@H]5CCN(C6CC6)C5)c([N+](=O)[O-])c4)c(Oc4cnc5[nH]ccc5c4)c3)CC2)=C(c2ccc(Cl)cc2)C1 [Compound 144, 4-(4-{[2-(4-chlorophenyl)-4,4-dimethylcyclohex-1-en-1-yl]methyl}piperazin-1-yl)-N-[(4-{[(3R)-1-cyclopropylpyrrolidin-3-yl]amino}-3-nitrophenyl)sulfonyl]-2-(1H-pyrrolo[2,3-b]pyridin-5-yloxy)benzamide] showed a Ki of less than 0.01 nM.
With CC1(C)CCC(CN2CCN(c3ccc(C(=O)NS(=O)(=O)c4ccc(NC[C@@H]5CCN(C6CCOCC6)C5)c([N+](=O)[O-])c4)c(Oc4cnc5[nH]ccc5c4)c3)CC2)=C(c2ccc(Cl)cc2)C1 [Compound 145, 4-(4-{[2-(4-chlorophenyl)-4,4-dimethylcyclohex-1-en-1-yl]methyl}piperazin-1-yl)-N-{[3-nitro-4-({[(3S)-1-tetrahydro-2H-pyran-4-ylpyrrolidin-3-yl]methyl}amino)phenyl]sulfonyl}-2-(1H-pyrrolo[2,3-b]pyridin-5-yloxy)benzamide] the Ki was less than 0.01 nM.
With CC(C)(CO)CNc1ccc(S(=O)(=O)NC(=O)c2ccc(N3CCN(CC4=C(c5ccc(Cl)cc5)CC(C)(C)CC4)CC3)cc2Oc2cnc3[nH]ccc3c2)cc1[N+](=O)[O-] [Compound 146, 4-(4-{[2-(4-chlorophenyl)-4,4-dimethylcyclohex-1-en-1-yl]methyl}piperazin-1-yl)-N-({4-[(3-hydroxy-2,2-dimethylpropyl)amino]-3-nitrophenyl}sulfonyl)-2-(1H-pyrrolo[2,3-b]pyridin-5-yloxy)benzamide] the Ki was less than 0.01 nM.
In the case of CC1(C)CCC(CN2CCN(c3ccc(C(=O)NS(=O)(=O)c4ccc(NCC5CCCN(S(C)(=O)=O)C5)c([N+](=O)[O-])c4)c(Oc4cnc5[nH]ccc5c4)c3)CC2)=C(c2ccc(Cl)cc2)C1 (stereo not shown) [Compound 147, 4-(4-{[2-(4-chlorophenyl)-4,4-dimethylcyclohex-1-en-1-yl]methyl}piperazin-1-yl)-N-{[4-({[1-(methylsulfonyl)piperidin-3-yl]methyl}amino)-3-nitrophenyl]sulfonyl}-2-(1H-pyrrolo[2,3-b]pyridin-5-yloxy)benzamide], the Ki is reported as less than 0.01 nM.
CC(=O)N1CCCC(CNc2ccc(S(=O)(=O)NC(=O)c3ccc(N4CCN(CC5=C(c6ccc(Cl)cc6)CC(C)(C)CC5)CC4)cc3Oc3cnc4[nH]ccc4c3)cc2[N+](=O)[O-])C1 (stereo not shown) [Compound 148, N-[(4-{[(1-acetylpiperidin-3-yl)methyl]amino}-3-nitrophenyl)sulfonyl]-4-(4-{[2-(4-chlorophenyl)-4,4-dimethylcyclohex-1-en-1-yl]methyl}piperazin-1-yl)-2-(1H-pyrrolo[2,3-b]pyridin-5-yloxy)benzamide] showed a Ki of less than 0.01 nM.
